The values that follow come from PubChem BioAssay AID1259407 (Chemical Carcinogenesis Research Information System (CCRIS), 2018).

This data set has as its system CCRIS mutagenicity, Ames/micronucleus/aberration tests. The experiment in a line: CCRIS mutagenicity studies.
The mark [1] stands for this setting: Test System: AMES SALMONELLA TYPHIMURIUM, Strain/Indicator: TA98, Metabolic Activation: NONE, Method: STANDARD PLATE.
[2] abbreviates: Test System: AMES SALMONELLA TYPHIMURIUM, Strain/Indicator: TA98, Metabolic Activation: RAT, LIVER, S-9, AROCLOR 1254, Method: STANDARD PLATE.
The mark [3] stands for this setting: Test System: AMES SALMONELLA TYPHIMURIUM, Strain/Indicator: TA100, Metabolic Activation: NONE, Method: STANDARD PLATE.
The mark [4] stands for this setting: Test System: AMES SALMONELLA TYPHIMURIUM, Strain/Indicator: TA100, Metabolic Activation: RAT, LIVER, S-9, AROCLOR 1254, Method: STANDARD PLATE.
[5] abbreviates: Test System: AMES SALMONELLA TYPHIMURIUM, Strain/Indicator: TA1535, Metabolic Activation: NONE, Method: STANDARD PLATE.
[6] abbreviates: Test System: AMES SALMONELLA TYPHIMURIUM, Strain/Indicator: TA1537, Metabolic Activation: NONE, Method: STANDARD PLATE.

The source made the active and inactive calls. How the calls were made is not given here.

Regarding `Cc1cccc(N)c1N`, the mutagenic call was “active; positive” (Test System: AMES SALMONELLA TYPHIMURIUM, Strain/Indicator: TA98, Metabolic Activation: RAT, LIVER, MICROSOMES, AROCLOR 1254, Method: PREINCUBATION); “active; positive” (Test System: AMES SALMONELLA TYPHIMURIUM, Strain/Indicator: TA98, Metabolic Activation: RAT, LIVER, MICROSOMES, DIAMINOTOLUENE, Method: PREINCUBATION); “active; positive” (Test System: AMES SALMONELLA TYPHIMURIUM, Strain/Indicator: TA98, Metabolic Activation: RAT, LIVER, MICROSOMES, Method: PREINCUBATION).
On to `COc1ccc(C(=O)n2ncc(Cl)c(Cl)c2=O)cc1`, for which the mutagenic call under setting [1] was “inactive; negative”; the mutagenic call under setting [2] is “inactive; negative”; the mutagenic call under setting [3] was “inactive; negative”; the mutagenic call under setting [4] is “inactive; negative”; the mutagenic call under setting [5] is “inactive; negative”; the mutagenic call (Test System: AMES SALMONELLA TYPHIMURIUM, Strain/Indicator: TA1535, Metabolic Activation: RAT, LIVER, S-9, AROCLOR 1254, Method: STANDARD PLATE) is “inactive; negative”. The mutagenic call was “inactive; negative” under setting [6] and “inactive; negative” (Test System: AMES SALMONELLA TYPHIMURIUM, Strain/Indicator: TA1537, Metabolic Activation: RAT, LIVER, S-9, AROCLOR 1254, Method: STANDARD PLATE).
Turning to `O=S1OC[C@@H]2[C@H](CO1)[C@]1(Cl)C(Cl)=C(Cl)[C@@]2(Cl)C1(Cl)Cl` (stereo partly drawn), the mutagenic call is “inactive; negative” (Test System: AMES SALMONELLA TYPHIMURIUM, Strain/Indicator: TA97, Metabolic Activation: NONE, Method: STANDARD PLATE); “inactive; negative” (Test System: AMES SALMONELLA TYPHIMURIUM, Strain/Indicator: TA97, Metabolic Activation: RAT, LIVER, S-9, AROCLOR 1254, Method: STANDARD PLATE); “inactive; negative” under setting [1]; “inactive; negative” under setting [2]; “inactive; negative” under setting [3]; “inactive; negative” under setting [4]. Besides, the mutagenic call is “inactive; negative” (Test System: AMES SALMONELLA TYPHIMURIUM, Strain/Indicator: TA102, Metabolic Activation: NONE, Method: STANDARD PLATE) and “inactive; negative” (Test System: AMES SALMONELLA TYPHIMURIUM, Strain/Indicator: TA102, Metabolic Activation: RAT, LIVER, S-9, AROCLOR 1254, Method: STANDARD PLATE).
On to `O=C(/C=C/c1ccccc1)c1ccc(F)cc1`, for which the mutagenic call by setting is: under setting [1], “inactive; negative”; under setting [2], “inactive; negative”; under setting [3], “inactive; negative”; under setting [4], “inactive; negative”.
In the case of `S=C=Nc1cccc2ccccc12`, the mutagenic call (Test System: AMES SALMONELLA TYPHIMURIUM, Strain/Indicator: TA97, Metabolic Activation: HAMSTER, LIVER, S-9, AROCLOR 1254 (30%), Method: PREINCUBATION) is “active; positive”; the mutagenic call (Test System: AMES SALMONELLA TYPHIMURIUM, Strain/Indicator: TA97, Metabolic Activation: NONE, Method: PREINCUBATION) is “inactive; negative”; the mutagenic call (Test System: AMES SALMONELLA TYPHIMURIUM, Strain/Indicator: TA97, Metabolic Activation: RAT, LIVER, S-9, AROCLOR 1254 (10 OR 30%), Method: PREINCUBATION) is “inactive; negative”; the mutagenic call (Test System: AMES SALMONELLA TYPHIMURIUM, Strain/Indicator: TA98, Metabolic Activation: HAMSTER, LIVER, S-9, AROCLOR 1254 (30%), Method: PREINCUBATION) is “inactive; negative”; the mutagenic call (Test System: AMES SALMONELLA TYPHIMURIUM, Strain/Indicator: TA98, Metabolic Activation: NONE, Method: PREINCUBATION) was “inactive; negative”; the mutagenic call (Test System: AMES SALMONELLA TYPHIMURIUM, Strain/Indicator: TA98, Metabolic Activation: RAT, LIVER, S-9, AROCLOR 1254 (1O OR 30%), Method: PREINCUBATION) was “inactive; negative”. Besides, the mutagenic call reads like this: (Test System: AMES SALMONELLA TYPHIMURIUM, Strain/Indicator: TA100, Metabolic Activation: HAMSTER, LIVER, S-9, AROCLOR 1254 (10%), Method: PREINCUBATION) “inactive; negative”; (Test System: AMES SALMONELLA TYPHIMURIUM, Strain/Indicator: TA100, Metabolic Activation: HAMSTER, LIVER, S-9, AROCLOR 1254 (30%), Method: PREINCUBATION) “active; positive”; (Test System: AMES SALMONELLA TYPHIMURIUM, Strain/Indicator: TA100, Metabolic Activation: NONE, Method: PREINCUBATION) “inactive; negative”; (Test System: AMES SALMONELLA TYPHIMURIUM, Strain/Indicator: TA100, Metabolic Activation: RAT, LIVER, S-9, AROCLOR 1254 (10%), Method: PREINCUBATION) “inactive; negative”; (Test System: AMES SALMONELLA TYPHIMURIUM, Strain/Indicator: TA100, Metabolic Activation: RAT, LIVER, S-9, AROCLOR 1254 (30%), Method: PREINCUBATION) “inactive; negative”; (Test System: AMES SALMONELLA TYPHIMURIUM, Strain/Indicator: TA1535, Metabolic Activation: HAMSTER, LIVER, S-9, AROCLOR 1254 (10 OR 30%), Method: PREINCUBATION) “inactive; negative”. Moreover, the mutagenic call (Test System: AMES SALMONELLA TYPHIMURIUM, Strain/Indicator: TA1535, Metabolic Activation: NONE, Method: PREINCUBATION) was “inactive; negative”; the mutagenic call (Test System: AMES SALMONELLA TYPHIMURIUM, Strain/Indicator: TA1535, Metabolic Activation: RAT, LIVER, S-9, AROCLOR 1254 (10 OR 30%), Method: PREINCUBATION) is “inactive; negative”; the mutagenic call (Test System: AMES SALMONELLA TYPHIMURIUM, Strain/Indicator: TA1537, Metabolic Activation: HAMSTER, LIVER, S-9, AROCLOR 1254 (30%), Method: PREINCUBATION) is “inactive; negative”; the mutagenic call (Test System: E. COLI, Strain/Indicator: WP2 UVRA, Metabolic Activation: HAMSTER, LIVER, S-9, AROCLOR 1254, Method: STANDARD PLATE) is “inactive; negative”; the mutagenic call (Test System: E. COLI, Strain/Indicator: WP2 UVRA, Metabolic Activation: HAMSTER, LIVER, S-9, Method: STANDARD PLATE) is “inactive; negative”; the mutagenic call (Test System: E. COLI, Strain/Indicator: WP2 UVRA, Metabolic Activation: MOUSE, LIVER, S-9, AROCLOR 1254, Method: STANDARD PLATE) is “inactive; negative”. Besides, the mutagenic call was “inactive; negative” (Test System: E. COLI, Strain/Indicator: WP2 UVRA, Metabolic Activation: MOUSE, LIVER, S-9, Method: STANDARD PLATE); “inactive; negative” (Test System: E. COLI, Strain/Indicator: WP2 UVRA, Metabolic Activation: NONE, Method: STANDARD PLATE); “inactive; negative” (Test System: E. COLI, Strain/Indicator: WP2 UVRA, Metabolic Activation: RAT, LIVER, S-9, AROCLOR 1254, Method: STANDARD PLATE); “inactive; negative” (Test System: E. COLI, Strain/Indicator: WP2 UVRA, Metabolic Activation: RAT, LIVER, S-9, Method: STANDARD PLATE).
Consider `Nc1ncnc2c1nc(Cl)n2[C@@H]1O[C@@H]2COP(=O)(O)O[C@H]2[C@H]1O`, for which the mutagenic call was “active; positive (structural and ploidy changes)” (End Point: IN VIVO CHROMOSOMAL ABERRATIONS, Test System: BONE MARROW, Species: MOUSE, Strain/Sex: BALB/C, Route: IP); “active; positive” (End Point: IN VIVO MICRONUCLEUS, Test System: BONE MARROW, Species: MOUSE, Strain/Sex: BALB/C, Route: IP); “inactive; negative. reevaluation of results: negative” (Test System: MOUSE LYMPHOMA, Strain/Indicator: L5178Y (TK+/TK-), Metabolic Activation: NONE, Method: SUSPENSION/PLATE); “inactive; negative. reevaluation of results: negative” (Test System: MOUSE LYMPHOMA, Strain/Indicator: L5178Y (TK+/TK-), Metabolic Activation: RAT, LIVER, S-9, AROCLOR 1254, Method: SUSPENSION/PLATE).
Take `CCc1ccc(N)cc1`: for the setting “Test System: E. COLI, Strain/Indicator: WP2 UVRA, Metabolic Activation: NONE, Method: FLUCTUATION TEST”, the mutagenic call is “inactive; negative”.
Regarding `CCCCOc1ccc2nc3cc(Cl)ccc3c(NCCCN(CC)CCCl)c2n1`, the mutagenic call is “active; positive” under setting [1]; “inactive; negative” under setting [3]; “inactive; negative” under setting [5]; “active; positive” (Test System: AMES SALMONELLA TYPHIMURIUM, Strain/Indicator: TA1536, Metabolic Activation: NONE, Method: STANDARD PLATE); “active; positive” under setting [6]; “active; positive” (Test System: AMES SALMONELLA TYPHIMURIUM, Strain/Indicator: TA1538, Metabolic Activation: NONE, Method: STANDARD PLATE).
`O=C(O)c1occ(-c2ccccc2)c1-c1ccccc1`: the mutagenic call is “inactive; negative” under setting [1] and “inactive; negative” under setting [3].
